Assay results from patent publication US7842695B2, “Substituted pyrazole compounds” (Merck Patent GmbH, priority 2003, dated 2010).
pIC50: −log10 of the molar value.

Molecular target: 5-HT2A receptors (UniProt P14842)
Test: in-vitro affinity to 5-HT2A receptors, [3H]ketanserine displacement (Example A1)
Format: binding
Source text: The 5-HT2A receptors are exposed both to [^3H]ketanserine (a substance known for its affinity to the receptor) and also to the test compound. The decrease in the affinity of [^3H]ketanserine to the receptor is an indication of the affinity of the test substance to the 5-HT2A receptor.

Row | pIC50 | Compound
1 | 7.04 | COc1cccc(-c2c(CN3CCC(O)C3)cnn2-c2ccc(-c3ccc(F)cc3)cc2)c1 (stereo not drawn) [Example 665, 1-[1-(4′-Fluorobiphenyl-4-yl)-5-(3-methoxyphenyl)-1H-pyrazol-4-ylmethyl]pyrrolidin-3-ol]
2 | 7.74 | COc1ccc(-c2ccc(-n3ncc(CN)c3-c3ccco3)cc2)cc1 [Example 584, C-[5-Furan-2-yl-1-(4′-methoxybiphenyl-4-yl)-1H-pyrazol-4-yl]methylamine]
3 | 7.59 | COCCNCc1cnn(-c2ccc(-c3ccc(F)cc3)cc2)c1-c1ccco1 [Example 603, [1-(4′-Fluorobiphenyl-4-yl)-5-furan-2-yl-1H-pyrazol-4-ylmethyl]-(2-methoxyethyl)amine]
4 | 7.27 | CCN1CCN(Cc2cnn(-c3ccc(-c4ccc(F)cc4)cc3)c2-c2cccc(Cl)c2)CC1 [Example 650, 1-[5-(3-Chlorophenyl)-1-(4′-fluorobiphenyl-4-yl)-1H-pyrazol-4-ylmethyl]-4-ethylpiperazine]
5 | 7.80 | CN(CCc1ccccc1)Cc1cnn(-c2ccc(-c3ccc(F)cc3)cc2)c1-c1ccco1 [Example 579, [1-(4′-Fluorobiphenyl-4-yl)-5-furan-2-yl-1H-pyrazol-4-ylmethyl]methylphenethylamine]
6 | 6.89 | CCCCNCc1cnn(-c2ccc(-c3ccc(F)cc3)cc2)c1-c1ccco1 [Example 677, Butyl-[1-(4′-fluorobiphenyl-4-yl)-5-furan-2-yl-1H-pyrazol-4-ylmethyl]amine]
7 | 7.54 | CCN(CC)CCCNCc1cnn(-c2ccc(-c3ccc(F)cc3)cc2)c1-c1ccco1 [Example 609, N,N-Diethyl-N′-[1-(4′-fluorobiphenyl-4-yl)-5-furan-2-yl-1H-pyrazol-4-ylmethyl]propane-1,3-diamine]
8 | 6.72 | COCCN1CCN(Cc2cnn(-c3ccc(-c4ccc(F)cc4)cc3)c2-c2cccc(OC)c2)CC1 [Example 685, 1-[1-(4′-Fluorobiphenyl-4-yl)-5-(3-methoxyphenyl)-1H-pyrazol-4-ylmethyl]-4-(2-methoxyethyl)piperazine]
9 | 7.80 | COCCCNCc1cnn(-c2ccc(-c3ccc(F)cc3)cc2)c1-c1ccco1 [Example 580, [1-(4′-Fluorobiphenyl-4-yl)-5-furan-2-yl-1H-pyrazol-4-ylmethyl]-(3-methoxypropyl)amine]
10 | 6.89 | CCN(CC)Cc1cnn(-c2ccc(-c3ccc(F)cc3)cc2)c1-c1cccc(OC)c1 [Example 676, Diethyl-[1-(4′-fluorobiphenyl-4-yl)-5-(3-methoxyphenyl)-1H-pyrazol-4-ylmethyl]amine]
11 | 7.38 | CCC(CC)CNCc1cnn(-c2ccc(-c3ccc(OC)cc3)cc2)c1-c1ccco1 [Example 637]
12 | 6.72 | CCCN1CCN(Cc2cnn(-c3ccc(-c4ccc(F)cc4)cc3)c2-c2cccc(OC)c2)CC1 [Example 684, 1-[1-(4′-Fluorobiphenyl-4-yl)-5-(3-methoxyphenyl)-1H-pyrazol-4-ylmethyl]-4-propylpiperazine]
13 | 7.80 | Cc1noc(C)c1-c1c(CN(C)C)cnn1-c1ccc(-c2ccc(F)cc2)cc1 [Example 577, [5-(3,5-Dimethylisoxazol-4-yl)-1-(4′-fluorobiphenyl-4-yl)-1H-pyrazol-4-ylmethyl]dimethylamine]

The next lines start with the compound.

Row | Compound | pIC50
14 | Fc1ccc(-c2ccc(-n3ncc(CN4CCN(CCN5CCCCC5)CC4)c3-c3cccc(Cl)c3)cc2)cc1 [Example 702, 1-[5-(3-Chlorophenyl)-1-(4′-fluorobiphenyl-4-yl)-1H-pyrazol-4-ylmethyl]-4-(2-piperidin-1-ylethyl)piperazine] | 6.33
15 | COc1ccc(-c2ccc(-n3ncc(CNCc4nccs4)c3-c3ccco3)cc2)cc1 [Example 688, [5-Furan-2-yl-1-(4′-methoxybiphenyl-4-yl)-1H-pyrazol-4-ylmethyl]thiazol-2-ylmethylamine] | 6.66
16 | CCCCN(Cc1cnn(-c2ccc(-c3ccc(F)cc3)cc2)c1-c1ccco1)Cc1cnn(-c2ccc(-c3ccc(F)cc3)cc2)c1-c1ccco1 [Example 622, Butylbis-[1-(4′-fluorobiphenyl-4-yl)-5-furan-2-yl-1H-pyrazol-4-ylmethyl]amine] | 7.47
17 | COc1ccc(-c2ccc(-n3ncc(CNCc4ccncc4)c3-c3ccco3)cc2)cc1 [Example 615, [5-Furan-2-yl-1-(4′-methoxybiphenyl-4-yl)-1H-pyrazol-4-ylmethyl]pyridin-4-ylmethylamine] | 7.49
18 | CN1CCN(c2cnn(-c3ccc(-c4cccc(F)c4)cc3)c2-c2ccccc2)CC1 [Example 578, 1-[1-(3′-Fluorobiphenyl-4-yl)-5-phenyl-1H-pyrazol-4-yl]-4-methylpiperazine] | 7.80
19 | OCCCCNCc1cnn(-c2ccc(-c3ccc(F)cc3)cc2)c1-c1ccco1 [Example 617, 4-{[1-(4′-Fluorobiphenyl-4-yl)-5-furan-2-yl-1H-pyrazol-4-ylmethyl]amino}butan-1-ol] | 7.49
20 | CN1CCN(Cc2cnn(-c3ccc(-c4ccc(C#N)s4)cc3)c2-c2ccccc2F)CC1 [Example 649, 5-{4-[5-(2-Fluorophenyl)-4-(4-methylpiperazin-1-ylmethyl)pyrazol-1-yl]phenyl}thiophene-2-carbonitrile] | 7.27
21 | CC#Cc1ccc(-c2ccc(-n3ncc(CN4CCN(C)CC4)c3-c3ccccc3F)cc2)c(F)c1 [Example 667, 1-[5-(2-Fluorophenyl)-1-(2′-fluoro-4′-prop-1-ynylbiphenyl-4-yl)-1H-pyrazol-4-ylmethyl]-4-methylpiperazine] | 7.03
22 | Cc1ccoc1-c1c(CN2CCN(C(=O)OC(C)(C)C)CC2)cnn1-c1ccc(-c2ccc(F)cc2)cc1 [Example 689, tert-Butyl 4-[1-(4′-fluorobiphenyl-4-yl)-5-(3-methyl-2-furanyl)-1H-pyrazol-4-ylmethyl]piperazine-1-carboxylate] | 6.66
23 | CC1CCCN1Cc1cnn(-c2ccc(-c3ccc4c(c3)OCO4)cc2)c1-c1ccco1 (stereo not drawn) [Example 616, 1-(4-Benzo-1,3-dioxol-5-ylphenyl)-5-furan-2-yl-4-(2-methylpyrrolidin-1-ylmethyl)-1H-pyrazole] | 7.49
24 | Fc1ccc(-c2ccc(-n3ncc(CNC4CN5CCC4CC5)c3-c3ccco3)cc2)cc1 (stereo not drawn) [Example 621] | 7.47
25 | Fc1ccc(CCN2CCC(NCc3cnn(-c4ccc(-c5ccc(F)cc5)cc4)c3-c3ccco3)C2)cc1 (stereo not drawn) [Example 581, [1-(4′-Fluorobiphenyl-4-yl)-5-furan-2-yl-1H-pyrazol-4-ylmethyl]-{1-[2-(4-fluorophenyl)ethyl]pyrrolidin-3-yl}amine] | 7.77
26 | COc1ccc(-c2ccc(-n3ncc(CN4CCN(C)CC4)c3-c3ccccc3F)cc2)cn1 [Example 648, 1-{5-(2-Fluorophenyl)-1-[4-(6-methoxypyridin-3-yl)phenyl]-1H-pyrazol-4-ylmethyl}-4-methylpiperazine] | 7.28
27 | O=C(O)Cc1cnn(-c2ccccc2F)c1-c1cccs1 [Example 678, 1-(2-Fluorophenyl)-5-(2-thienyl)-4-pyrazoleacetic acid] | 6.80
28 | CN1CCN(Cc2cnn(-c3ccc(-c4ccc(S(C)(=O)=O)cc4)cc3)c2-c2ccccc2F)CC1 [Example 663, 1-[5-(2-Fluorophenyl)-1-(4′-methanesulfonylbiphenyl-4-yl)-1H-pyrazol-4-ylmethyl]-4-methylpiperazine] | 7.07
29 | CC(C)(C)OC(=O)NC1CCN(Cc2cnn(-c3ccc(-c4ccc5c(c4)OCCO5)cc3)c2-c2ccco2)CC1 [Example 566, tert-Butyl (1-{1-[4-(2,3-dihydrobenzo-1,4-dioxin-6-yl)phenyl]-5-furan-2-yl-1H-pyrazol-4-ylmethyl}piperidin-4-yl)carbamate] | 7.96
30 | CCCN1CCN(Cc2cnn(-c3ccc(-c4ccc(F)cc4)cc3)c2-c2ccoc2)CC1 [Example 657, 1-[1-(4′-Fluorobiphenyl-4-yl)-5-furan-3-yl-1H-pyrazol-4-ylmethyl]-4-propylpiperazine] | 7.14
31 | CCN1CCN(Cc2cnn(-c3ccc(-c4ccc(F)cc4)cc3)c2-c2c(C)noc2C)CC1 [Example 672, 1-[5-(3,5-Dimethylisoxazol-4-yl)-1-(4′-fluorobiphenyl-4-yl)-1H-pyrazol-4-ylmethyl]-4-ethylpiperazine] | 7.00
32 | O=C1CN(Cc2cnn(-c3ccc(-c4ccc5c(c4)OCO5)cc3)c2-c2ccco2)CCN1 [Example 612, 4-[1-(4-Benzo-1,3-dioxol-5-ylphenyl)-5-furan-2-yl-1H-pyrazol-4-ylmethyl]piperazin-2-one] | 7.51
33 | O=C1CN(Cc2cnn(-c3ccc(-c4cccc(F)c4)cc3)c2-c2ccco2)CCN1 [Example 645, 4-[1-(3′-Fluorobiphenyl-4-yl)-5-furan-2-yl-1H-pyrazol-4-ylmethyl]piperazin-2-one] | 7.31
34 | CC(C)(C)OC(=O)N1CCN(Cc2cnn(-c3ccc(-c4ccc5c(c4)OCCO5)cc3)c2-c2ccco2)CC1 [Example 572, tert-Butyl 4-{1-[4-(2,3-dihydrobenzo-1,4-dioxin-6-yl)phenyl]-5-furan-2-yl-1H-pyrazol-4-ylmethyl}piperazine-1-carboxylate] | 7.92
35 | OCC1CCN(Cc2cnn(-c3ccc(-c4ccc(F)cc4)cc3)c2-c2ccco2)C1 (stereo not drawn) [Example 567, {1-[1-(4′-Fluorobiphenyl-4-yl)-5-furan-2-yl-1H-pyrazol-4-ylmethyl]pyrrolidin-3-yl}methanol] | 7.96
36 | OC1CCN(Cc2cnn(-c3ccc(-c4ccc(F)cc4)cc3)c2-c2ccoc2)C1 (stereo not drawn) [Example 670, 1-[1-(4′-Fluorobiphenyl-4-yl)-5-furan-3-yl-1H-pyrazol-4-ylmethyl]pyrrolidin-3-ol] | 7.02
37 | Fc1ccc(-c2ccc(-n3ncc(CNC4CC4)c3-c3ccco3)cc2)cc1 [Example 582] | 7.77
38 | CN1CCN(Cc2cnn(-c3ccc(-c4ccc[nH]4)cc3)c2-c2ccccc2F)CC1 [Example 653, 1-{5-(2-Fluorophenyl)-1-[4-(1H-pyrrol-2-yl)phenyl]-1H-pyrazol-4-ylmethyl}-4-methylpiperazine] | 7.24
39 | O=C1NCCCCC1NCc1cnn(-c2ccc(-c3ccc(F)cc3)cc2)c1-c1ccco1 (stereo not drawn) [Example 694, 3-{[1-(4′-Fluorobiphenyl-4-yl)-5-furan-2-yl-1H-pyrazol-4-ylmethyl]amino}azepan-2-one] | 6.54
